# Where two headings read alike, the source gives them in different places.
# Columns and labels:
# HSC = settings: in vivo; cited from earlier work
# T cell lymphoma = settings: T cell lymphoma/Partial remission
# Protocol: (§1) A sample from the subjects is collected at the time of diagnosis (“baseline sample”) and analyzed for tumor mutational burden (TMB) and microsatellite instability (MSI). Subjects are then administered a single dose of plerixafor (10-20 mg), a single dose of motixafortide (0.5-2 mg/kg), a single dose of MGTA-145 (0.0075-0.3 mg/kg), or a single dose of MGTA-145 (0.0075-0.3 mg/kg) in combination with a single dose of plerixafor (0.24 mg/kg), and blood sample collected 1-72 hours later. This blood sample (“LBYE+ sample”) is analyzed for TMB and MSI.
# (§2) The change/difference of biomarker detected in the LBYE+ sample and the baseline sample is used by a clinician to predict treatment response and/or make treatment decision.
# Colon Cancer = settings: Colon Cancer/Relapse
# Protocol: as §1, §2
structure (smiles),measurement,setting,value
"c1cc(CN2CCCNCCNCCCNCC2)ccc1CN1CCCNCCNCCCNCC1 [Plerixafor, 1-{[4-(1,4,8,11-tetrazacyclotetradec-1-ylmethyl)phenyl]methyl}-1,4,8,11-tetrazacyclotetradecane]",HSC mobilization,HSC,rapidly mobilize HSC within hours
same,"VAF, LBYE+ Sample Status","T cell lymphoma; TET2, baseline 23.80%",20.20%
same,"Genomic variants, LBYE+ Sample Status","T cell lymphoma; after intervening agent, baseline TET2",TET2
same,"TMB, LBYE+ Sample Status",T cell lymphoma; baseline 0.4 m/MB,0.5 m/MB
same,"MSI, LBYE+ Sample Status",T cell lymphoma; baseline Stable,Stable
same,"VAF, LBYE+ Sample Status","Colon Cancer; APC, baseline 7.80%",7.30%
same,"VAF, LBYE+ Sample Status","Colon Cancer; TP53, baseline 6.30%",6.30%
same,"TMB, LBYE+ Sample Status",Colon Cancer; baseline 0.5 m/MB,1.1 m/MB
same,"MSI, LBYE+ Sample Status",Colon Cancer; baseline Stable,Stable

# — US20240103011A1, “LIQUID BIOPSY YIELD ENHANCEMENT” (priority 2021, published 2024)
